Source: patent US20250230193A1, “CYCLIC COMPOUND HAVING SELECTIVE KRAS INHIBITORY EFFECT ON HRAS AND NRAS” (CHUGAI SEIYAKU KABUSHIKI KAISHA, priority 2022, published 2025)
Where a SMILES comes first, the peptide text is derived from it. Bridges are numbered along the chain shown (N, C = ends). [ ]: non-standard residue; d: D form. The star is where a group is joined. hPhe(3-Cl-4-CF3) = N[C@@H](CCc1ccc(C(F)(F)F)c(Cl)c1)C(=O)O; NPrPhe(4-CF3) = CCCN[C@@H](Cc1ccc(C(F)(F)F)cc1)C(=O)O; NMeGly(cPent) = CN[C@H](C(=O)O)C1CCCC1; NMeD = CN[C@@H](CC(=O)O)C(=O)O; NMeL = CN[C@@H](CC(C)C)C(=O)O; Pip = O=C(O)[C@@H]1CCCCN1; Morpholide = C1CN(*)CCO1; Ac5c = NC1(C(=O)O)CCCC1; Aze = O=C(O)[C@@H]1CCN1; Sar = CNCC(=O)O

How the values were obtained:
[1] = molecular target: GDP-bound NRAS wild-type protein (Homo sapiens, UniProt P01111); test: Binding to NRAS by surface plasmon resonance (SPR), Single Cycle Kinetics
[2] = molecular target: GDP-bound HRAS wild-type protein (Homo sapiens, UniProt P01112); test: Binding to HRAS by surface plasmon resonance (SPR), Single Cycle Kinetics
[3] = SPR, GDP-bound NRAS wild-type vs GDP-bound KRAS wild-type
[4] = SPR, GDP-bound HRAS wild-type vs GDP-bound KRAS wild-type

Sequence of GDP-bound NRAS wild-type protein (P01111 whole entry): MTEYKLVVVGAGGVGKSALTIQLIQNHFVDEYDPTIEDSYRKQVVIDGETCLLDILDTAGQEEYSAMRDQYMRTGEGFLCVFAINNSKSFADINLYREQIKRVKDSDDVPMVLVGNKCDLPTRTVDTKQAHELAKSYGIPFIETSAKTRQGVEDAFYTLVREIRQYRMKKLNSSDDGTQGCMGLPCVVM
Sequence of GDP-bound HRAS wild-type protein (P01112 whole entry): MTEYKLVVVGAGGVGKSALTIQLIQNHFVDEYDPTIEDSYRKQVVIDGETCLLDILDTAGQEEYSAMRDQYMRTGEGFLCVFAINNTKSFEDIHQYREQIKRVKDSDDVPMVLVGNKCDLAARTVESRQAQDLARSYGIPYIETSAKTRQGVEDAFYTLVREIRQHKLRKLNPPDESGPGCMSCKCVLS

CC[C@H](C)[C@@H]1NC(=O)[C@H](CC(C)C)N(C)C(=O)C[C@@H](C(=O)N(C)CC)N(C)C(=O)[C@H](C2CCCC2)N(C)C(=O)C2(CC(C)(C)C2)NC(=O)[C@@H]2C[C@H](C)CN2C(=O)[C@H](CCc2ccc(C(F)(F)F)c(OC)c2)NC(=O)CN(C)C(=O)[C@H](Cc2ccc(C)cc2)N2CC/C=C\C[C@@H](C2=O)N(C)C(=O)[C@@H]2CCCN2C1=O [PP2410]
NRAS/KRAS (ratio of KD value with respect to NRAS to KD value with respect to KRAS) [1, 3]: A (a compound having 10 or more and less than 20 is denoted as A) | HRAS/KRAS (ratio of KD value with respect to HRAS to KD value with respect to KRAS) [2, 4]: A (a compound having 10 or more and less than 20 is denoted as A)

CCO[C@@H]1C[C@H]2C(=O)NC3(CC(C)(C)C3)C(=O)N(C)[C@@H](C3CCCC3)C(=O)N(C)[C@H](C(=O)N(C)CC)CC(=O)N(C)[C@@H](CC(F)F)C(=O)N[C@@H]([C@@H](C)CC)C(=O)N(C)CC(=O)N(C)[C@H]3C/C=C\CCN(C3=O)[C@@H](Cc3ccc(C(F)(F)F)cc3)C(=O)N(C)CC(=O)N[C@@H](CCc3cc(F)c(C(F)(F)F)c(F)c3)C(=O)N2C1 [PP1643]
NRAS/KRAS (ratio of KD value for NRAS to KD value for KRAS) ([1]; KD ratio, GDP-bound NRAS wild-type vs GDP-bound KRAS wild-type, SPR): A (a compound having 10 or more and less than 20 is denoted as A) | HRAS/KRAS (ratio of KD value for HRAS to KD value for KRAS) ([2]; KD ratio, GDP-bound HRAS wild-type vs GDP-bound KRAS wild-type, SPR): A (a compound having 10 or more and less than 20 is denoted as A)

CCC[C@H]1C(=O)N[C@@H]([C@@H](C)CC)C(=O)N(C2CC2)CC(=O)N(C)[C@H]2C/C=C\CCN(C2=O)[C@@H](CC2CCCCC2)C(=O)N(C)CC(=O)N[C@@H](CCc2ccc(C(F)(F)F)c(OC)c2)C(=O)N2C[C@H](OCC)C[C@H]2C(=O)N(C)C2(CCC2)C(=O)N(C)[C@@H](C2CCCC2)C(=O)N(C)[C@H](C(=O)N(C)C)CC(=O)N1C [PP2340]
NRAS/KRAS (ratio of KD value with respect to NRAS to KD value with respect to KRAS) [1, 3]: B (a compound having 3 or more and less than 10 is denoted as B) | HRAS/KRAS (ratio of KD value with respect to HRAS to KD value with respect to KRAS) [2, 4]: B (a compound having 3 or more and less than 10 is denoted as B)

CCC[C@H]1C(=O)N[C@@H]([C@@H](C)CC)C(=O)N(C)CC(=O)N(C)[C@H]2C/C=C\CCN(C2=O)[C@@H](Cc2ccc(C(F)(F)F)cc2)C(=O)N(C)CC(=O)N[C@@H](CCc2ccc(C(F)(F)F)c(OC)c2)C(=O)N2C[C@H](OCC)C[C@H]2C(=O)NC2(CC(C)(C)C2)C(=O)N(C)[C@@H](CC2CCC2)C(=O)N(C)[C@H](C(=O)N(C)C)CC(=O)N1C [PP2764]
NRAS/KRAS (ratio of KD value with respect to GDP-bound NRAS wild-type protein to KD value with respect to KRAS) ([1]; KD ratio NRAS/KRAS, class symbols): A (a compound having 10 or more and less than 20 is denoted as A) | HRAS/KRAS (ratio of KD value with respect to GDP-bound HRAS wild-type protein to KD value with respect to KRAS) ([2]; KD ratio HRAS/KRAS, class symbols): A (a compound having 10 or more and less than 20 is denoted as A)

CCCN1C(=O)CN(C)C(=O)[C@@H]2CCN2C(=O)[C@H]([C@@H](C)CC)NC(=O)[C@H](CC(C)C)N(C)C(=O)C[C@@H](C(=O)N(C)C)N(C)C(=O)[C@H](C2CCCC2)N(C)C(=O)C2(CCCC2)NC(=O)[C@@H]2CCCN2C(=O)[C@H](CCc2ccc(C(F)(F)F)c(Cl)c2)NC(=O)CN(C)C(=O)[C@@H]1Cc1ccc(C(F)(F)F)cc1 [PP0429] ([NMeL]I[Aze][Sar][NPrPhe(4-CF3)][Sar][hPhe(3-Cl-4-CF3)]P[Ac5c][NMeGly(cPent)][NMeD]-NMe2; lactam N-11)
NRAS/KRAS (ratio of KD value with respect to GDP-bound NRAS wild-type protein to KD value with respect to KRAS) ([1]; KD ratio NRAS/KRAS, SPR): B (a compound having 3 or more and less than 10 is denoted as B) | HRAS/KRAS (ratio of KD value with respect to GDP-bound HRAS wild-type protein to KD value with respect to KRAS) ([2]; KD ratio HRAS/KRAS, SPR): C (A compound having a KD ratio of 0.1 or more and less than 3 is denoted as C)

CC[C@H](C)[C@@H]1NC(=O)[C@H](CC(C)C)N(C)C(=O)C[C@@H](C(=O)N2CCOCC2)N(C)C(=O)[C@H](C2CCCC2)N(C)C(=O)C2(CCCC2)NC(=O)[C@@H]2CCCN2C(=O)[C@H](CCc2cc(F)c(C(F)(F)F)c(F)c2)NC(=O)CN(C)C(=O)[C@H](Cc2ccc(C(F)(F)F)cc2)N2CCCC[C@@H](C2=O)N(C)C(=O)CN(C)C1=O [PP0552]
NRAS/KRAS (ratio of KD value with respect to GDP-bound NRAS wild-type protein to KD value with respect to KRAS) ([1]; KD ratio NRAS/KRAS, SPR): B (a compound having 3 or more and less than 10 is denoted as B) | HRAS/KRAS (ratio of KD value with respect to GDP-bound HRAS wild-type protein to KD value with respect to KRAS) ([2]; KD ratio HRAS/KRAS, SPR): B (a compound having 3 or more and less than 10 is denoted as B)

CCCN1C(=O)CN(C)C(=O)[C@@H]2CCN2C(=O)[C@H]([C@@H](C)CC)NC(=O)[C@H](CC(C)C)N(C)C(=O)C[C@@H](C(=O)N2CCOCC2)N(C)C(=O)[C@H](C2CCCC2)N(C)C(=O)C2(CCCC2)NC(=O)[C@@H]2CCCCN2C(=O)[C@H](CCc2ccc(C(F)(F)F)c(Cl)c2)NC(=O)CN(C)C(=O)[C@@H]1Cc1ccc(C(F)(F)F)cc1 [PP0311] ([NMeL]I[Aze][Sar][NPrPhe(4-CF3)][Sar][hPhe(3-Cl-4-CF3)][Pip][Ac5c][NMeGly(cPent)][NMeD]-Morpholide; lactam N-11)
NRAS/KRAS (ratio of KD for GDP-bound NRAS wild-type to KD for KRAS) ([1]; KD ratio NRAS/KRAS, SPR): B (a compound having 3 or more and less than 10 is denoted as B) | HRAS/KRAS (ratio of KD for GDP-bound HRAS wild-type to KD for KRAS) ([2]; KD ratio HRAS/KRAS, SPR): B (a compound having 3 or more and less than 10 is denoted as B)
